Laboratory results reported in US12678471B2 (priority 2022, dated 2026).
Read-outs that look alike come from different tables or passages of the source.

Key:
Format in all cases: cell-based
[1] = tested on: Omicron S protein pseudotyped lentivirus (spike protein of the SARS-CoV-2 Omicron variant); assay: microbe, parasite or virus in culture; conditions: read-out: Half inhibition concentration of viral infection (IC50) Omicron
[2] = tested on: D614G S protein pseudotyped lentivirus (spike protein of the SARS-CoV-2 D614G variant); conditions: read-out: Half inhibition concentration of viral infection (IC50) D614G
[3] = tested on: Delta S protein pseudotyped lentivirus (spike protein of the SARS-CoV-2 Delta variant); conditions: ACE2-293T cells; virus pretreated with compound 1 hour at 37° C.; 24 hours infection; mean ± SD (n = 3); read-out: Half inhibition concentration of viral infection (IC50) Delta

Molecule | IC50 ([1]; Lentivirus) [µM] | IC50 [2] [µM] | IC50 [1] [µM] | IC50 [3] [µM]
COc1cc2c3cc1Oc1c(OC)c(OC)cc4c1[C@@H](Cc1ccc(O)c(c1)Oc1ccc(cc1)C[C@@H]3N(C)CC2)N(C)CC4 [Berbamine] | 2.29 ± 0.29 | – | – | –
COc1cc2c3cc1Oc1c(O)c(OC)cc4c1[C@@H](Cc1ccc(O)c(c1)Oc1ccc(cc1)C[C@@H]3N(C)CC2)N(C)CC4 [Obamegine] | 1.19 ± 0.16 | 1.4 ± 0.35 | – | –
Aromoline | – | – | 0.86 ± 0.12 | 0.47 ± 0.08
Bersavine | – | 1.24 ± 0.17 | 1.71 ± 0.34 | 2.86 ± 0.13
